PubChem BioAssay (NCI)
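Following 48 hours of exposure in 96-well plates, responses at five concentrations were used to interpolate endpoints linearly. TGI is the concentration that stops growth completely.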 Where a SMILES comes first, the peptide text is derived from it. The star is where a group is joined. OSu = O=C1CCC(=O)N1O*

Legend:
Assay in all cases: NCI tumour cell line growth inhibition, 48 h
786-0 renal = system: 786-0 renal
ACHN renal = system: ACHN renal
BT-549 breast = system: BT-549 breast
CAKI-1 renal = system: CAKI-1 renal
CCRF-CEM leukemia = system: CCRF-CEM leukemia
DU-145 prostate = system: DU-145 prostate
EKVX NSCLC = system: EKVX NSCLC
HS 578T breast = system: HS 578T breast
KM12 colon = system: KM12 colon
LOX IMVI melanoma = system: LOX IMVI melanoma
MOLT-4 leukemia = system: MOLT-4 leukemia
NCI-H460 lung = system: NCI-H460 lung
OVCAR-5 ovarian = system: OVCAR-5 ovarian
RPMI-8226 leukemia = system: RPMI-8226 leukemia
SK-MEL-2 melanoma = system: SK-MEL-2 melanoma
SN12C renal = system: SN12C renal
T-47D breast = system: T-47D breast
TK-10 renal = system: TK-10 renal

Row | SMILES | TGI (786-0 renal) | TGI (ACHN renal) | TGI (BT-549 breast) | TGI (CAKI-1 renal) | TGI (CCRF-CEM leukemia) | TGI (DU-145 prostate) | TGI (EKVX NSCLC) | TGI (HS 578T breast) | TGI (KM12 colon) | TGI (LOX IMVI melanoma) | TGI (MOLT-4 leukemia) | TGI (NCI-H460 lung) | TGI (OVCAR-5 ovarian) | TGI (RPMI-8226 leukemia) | TGI (SK-MEL-2 melanoma) | TGI (SN12C renal) | TGI (T-47D breast) | TGI (TK-10 renal)
1 | O=C1OC(c2ccccc2)=N/C1=C\c1ccc([N+](=O)[O-])cc1 | > 100 µM | 40.5 µM | 67 µM | > 100 µM | 68.3 µM | > 100 µM | > 100 µM | > 100 µM | > 100 µM | > 100 µM | 58.1 µM | > 100 µM | > 100 µM | > 100 µM | 86 µM | > 100 µM | 93.9 µM | > 100 µM
2 | Nc1ncc2c(n1)-c1ccccc1OC2N1CCCCC1 (stereo unspecified) | > 100 µM | > 100 µM | > 100 µM | > 100 µM | > 100 µM | > 100 µM | > 100 µM | > 100 µM | > 100 µM | > 100 µM | > 100 µM | > 100 µM | > 100 µM | > 100 µM | > 100 µM | > 100 µM | > 100 µM | > 100 µM
3 | O=C1NC2(CCN(CCc3ccccc3)CC2)Oc2ccccc21 | > 100 µM | > 100 µM | > 100 µM | > 100 µM | > 100 µM | > 100 µM | > 100 µM | 50.7 µM | > 100 µM | > 100 µM | > 100 µM | > 100 µM | > 100 µM | > 100 µM | > 100 µM | > 100 µM | > 100 µM | > 100 µM
4 | Cc1nn(C(=O)Cc2ccccc2)c2c1C(c1ccccc1)SC(N)=N2 (stereo unspecified) | > 100 µM | > 100 µM | > 100 µM | > 100 µM | > 100 µM | > 100 µM | > 100 µM | > 100 µM | > 100 µM | > 100 µM | > 100 µM | > 100 µM | – | > 100 µM | – | > 100 µM | > 100 µM | > 100 µM
5 | Cc1ccc(S(=O)(=O)N2C3C=CC(C3)[C@@H]2C(Cl)(Cl)Cl)cc1 (stereo partly specified) | 49.5 µM | 53.1 µM | 32.4 µM | > 68.5 µM | 71.2 µM | > 81.2 µM | 55 µM | 41.3 µM | 85.5 µM | 33.2 µM | 75 µM | 35.5 µM | – | 32.1 µM | 35.5 µM | 44.2 µM | > 100 µM | > 100 µM
6 | COC(=O)[C@]1(C)CCC[C@@]2(C)C1CC[C@@]13C=C(C(C)C)[C@@H](CC1=O)CC23 (stereo partly specified) | 60.7 µM | 45.1 µM | 63.4 µM | 85.2 µM | 42.4 µM | > 100 µM | 71.6 µM | 43.9 µM | > 100 µM | – | 31 µM | > 100 µM | – | 40.1 µM | – | 41.2 µM | > 100 µM | > 100 µM
7 | CSC(=O)c1sc(SC)[n+](-c2ccccc2)c1O | 32.7 µM | > 100 µM | 29.4 µM | – | 38.1 µM | 29.5 µM | – | > 100 µM | – | 44.8 µM | 41.4 µM | 86.3 µM | 49.6 µM | > 100 µM | 53.1 µM | 38.8 µM | 29.5 µM | 40.3 µM
8 | C(=C/CCCN1O[C@@H](CCCCCCCCc2cccnc2)[C@H]2CCC[C@H]21)/CCCCCCCCCc1cccnc1 | 37 µM | – | 95.7 µM | 33.1 µM | 41.3 µM | > 100 µM | 13.9 µM | > 100 µM | 58.7 µM | 35.3 µM | 55.1 µM | 39.2 µM | 41.5 µM | 28 µM | 52.4 µM | 40.3 µM | 66.6 µM | 38.4 µM
9 | CCOC(=O)/C(C#N)=C/c1coc2cc(C)cc(C)c2c1=O | > 100 µM | > 100 µM | > 100 µM | > 100 µM | > 100 µM | > 100 µM | > 100 µM | > 100 µM | > 100 µM | > 100 µM | > 100 µM | > 100 µM | > 100 µM | > 100 µM | – | > 100 µM | > 100 µM | > 100 µM
10 | COc1ccc(NC(=S)c2ccc(CN3CCCCC3)s2)cc1 | 36.7 µM | > 100 µM | 44 µM | 77.3 µM | 34.5 µM | > 100 µM | 41.3 µM | 43.8 µM | 35.7 µM | 33.3 µM | 61.9 µM | 37.4 µM | 34.1 µM | 74.7 µM | 36.9 µM | > 100 µM | 60.7 µM | –
11 | O=C(C(=O)n1ccc2ccccc21)n1ccc2ccccc21 | > 100 µM | > 100 µM | > 100 µM | > 100 µM | > 100 µM | > 100 µM | > 100 µM | > 100 µM | – | > 100 µM | > 100 µM | > 100 µM | > 100 µM | > 100 µM | > 100 µM | > 100 µM | > 100 µM | > 100 µM
12 | CC(N)/C(N)=N/O (stereo unspecified) | > 100 µM | > 100 µM | > 100 µM | > 100 µM | > 100 µM | > 100 µM | > 100 µM | > 100 µM | > 100 µM | > 100 µM | – | > 100 µM | > 100 µM | > 100 µM | > 100 µM | > 100 µM | > 100 µM | > 100 µM
13 | COc1cc2c(/C=C3/C(=O)Nc4cccc(Cl)c43)c(Cl)[nH]c2cc1C | 4.15 µM | 12.2 µM | 3.67 µM | 7.3 µM | 3.3 µM | 5.66 µM | – | 5.58 µM | 3.72 µM | 3.68 µM | 1.26 µM | 3.78 µM | 14.8 µM | 4.69 µM | 12.3 µM | 3.33 µM | 5.48 µM | 3.58 µM
14 | CCN(CC)CCCNC(=O)c1cc(-c2nccn2C)nc2ccccc12 | > 100 µM | > 100 µM | > 100 µM | > 100 µM | > 100 µM | > 100 µM | > 100 µM | – | > 100 µM | > 100 µM | > 100 µM | > 100 µM | > 100 µM | > 100 µM | > 100 µM | > 100 µM | > 100 µM | > 100 µM
15 | COc1cc(S(=O)(=O)Nc2ccc(-c3csc(N4C(=O)CSC4c4cccc(Oc5ccccc5)c4)n3)cc2)ccc1Cl (stereo unspecified) | > 100 µM | > 100 µM | > 100 µM | > 100 µM | > 100 µM | > 100 µM | > 100 µM | > 100 µM | > 100 µM | > 100 µM | > 100 µM | – | > 100 µM | > 100 µM | – | > 100 µM | 33.9 µM | –
16 | CC1=NN(c2nc(N)nc(COc3ccc(N)cc3)n2)C(C)(C)C1 | > 100 µM | > 100 µM | > 100 µM | > 100 µM | > 100 µM | > 100 µM | > 100 µM | > 100 µM | > 100 µM | > 100 µM | > 100 µM | > 100 µM | – | > 100 µM | > 100 µM | – | > 100 µM | > 100 µM
17 | Cc1ccc(Nc2nc(NNC(=O)Cc3ccccc3)nc(NNC(=O)c3ccncc3)n2)cc1 | > 10 µM | – | > 10 µM | > 10 µM | > 10 µM | > 10 µM | > 10 µM | > 10 µM | > 10 µM | > 10 µM | > 10 µM | > 10 µM | – | > 10 µM | – | > 10 µM | > 10 µM | > 10 µM
18 | NCCCCC(NC(=O)C(N)Cc1ccc(O)cc1)C(=O)NC(CCCCN)C(=O)NC(CCCCN)C(=O)ON1C(=O)CCC1=O (stereo unspecified) (H-YKKK-OSu; configuration not given here) | > 100 µM | > 100 µM | > 100 µM | – | – | – | > 100 µM | > 100 µM | > 100 µM | – | > 100 µM | > 100 µM | > 100 µM | > 100 µM | > 100 µM | > 100 µM | > 100 µM | > 100 µM
19 | Cc1ccc(S[C@@H](C)[C@@](O)(CF)CN(Cc2ccccc2)C(=O)C(F)(F)F)cc1 | 35.4 µM | 60.3 µM | 46.5 µM | 99.7 µM | > 100 µM | 53.2 µM | 64.9 µM | 61.7 µM | – | > 100 µM | – | 36.9 µM | 34.8 µM | – | 36.5 µM | 33.5 µM | 68.5 µM | > 100 µM
20 | COc1ccc(S(=O)(=O)n2c3c(c4ccccc42)[C@@H]2[C@@H](CCCN2C(=O)CS(=O)c2ccc(C)cc2)[C@H](Cl)C3)cc1 (stereo partly specified) | > 100 µM | – | > 100 µM | > 100 µM | > 100 µM | > 100 µM | > 100 µM | > 100 µM | > 100 µM | > 100 µM | > 100 µM | > 100 µM | > 100 µM | – | > 100 µM | > 100 µM | > 100 µM | > 100 µM
21 | Cc1ccc2nc(-c3ccccc3)cc(=O)n2c1 | > 100 µM | > 100 µM | > 100 µM | – | > 100 µM | > 100 µM | > 100 µM | > 100 µM | > 100 µM | – | > 100 µM | > 100 µM | > 100 µM | > 100 µM | – | > 100 µM | > 100 µM | > 100 µM
22 | CCOC(=O)C(=[N+]=[N-])C(=O)CN1C(=O)c2ccccc2C1=O | > 100 µM | > 100 µM | > 100 µM | > 100 µM | – | > 100 µM | > 100 µM | > 100 µM | – | – | > 100 µM | > 100 µM | > 100 µM | – | > 100 µM | > 100 µM | > 100 µM | > 100 µM
